Source: ChEMBL document CHEMBL5058646 (2022)

Columns and labels:
[1] = biological target: BMP-2-inducible protein kinase (Homo sapiens) (UniProt Q9NSY1); assay: BMP2K SGC Tm panel (DSF); details: Compound concentration 20.0 uM
[2] = biological target: T1, Zinc finger and BTB domain-containing protein 11 (Homo sapiens) (UniProt O95625); details: SUD4, Compound concentration 1.0 uM
T1 sequence (whole entry): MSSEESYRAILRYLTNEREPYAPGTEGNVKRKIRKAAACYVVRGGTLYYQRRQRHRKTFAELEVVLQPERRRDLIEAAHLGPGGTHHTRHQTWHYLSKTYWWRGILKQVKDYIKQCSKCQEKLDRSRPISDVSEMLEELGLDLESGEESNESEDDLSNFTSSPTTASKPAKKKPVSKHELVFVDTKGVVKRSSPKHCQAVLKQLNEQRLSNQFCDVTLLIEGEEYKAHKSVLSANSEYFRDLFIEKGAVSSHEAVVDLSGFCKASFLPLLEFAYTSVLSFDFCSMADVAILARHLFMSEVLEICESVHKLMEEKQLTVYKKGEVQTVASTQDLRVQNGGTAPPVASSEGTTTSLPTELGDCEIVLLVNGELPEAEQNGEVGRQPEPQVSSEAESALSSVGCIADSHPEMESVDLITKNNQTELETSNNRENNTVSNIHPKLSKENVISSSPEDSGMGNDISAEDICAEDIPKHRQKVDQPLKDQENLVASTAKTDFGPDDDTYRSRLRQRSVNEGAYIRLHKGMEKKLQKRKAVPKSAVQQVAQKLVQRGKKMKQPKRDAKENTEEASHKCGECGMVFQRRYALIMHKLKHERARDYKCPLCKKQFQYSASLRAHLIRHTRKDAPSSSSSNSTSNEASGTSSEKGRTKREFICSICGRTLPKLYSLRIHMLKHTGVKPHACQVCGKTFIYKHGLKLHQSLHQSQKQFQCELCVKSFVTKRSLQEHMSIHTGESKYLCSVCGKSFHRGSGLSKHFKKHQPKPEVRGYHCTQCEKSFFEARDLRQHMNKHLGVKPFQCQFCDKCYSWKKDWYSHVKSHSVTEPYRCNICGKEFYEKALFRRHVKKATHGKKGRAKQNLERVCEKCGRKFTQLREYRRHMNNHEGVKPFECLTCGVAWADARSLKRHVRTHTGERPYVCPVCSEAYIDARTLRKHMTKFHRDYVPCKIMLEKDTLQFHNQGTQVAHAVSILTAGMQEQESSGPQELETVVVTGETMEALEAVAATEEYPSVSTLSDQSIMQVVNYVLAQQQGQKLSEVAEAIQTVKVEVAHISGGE

[3] = biological target: Calcium/calmodulin-dependent protein kinase type II subunit delta (Homo sapiens) (UniProt Q13557); assay: CAMK2D SGC Tm panel (DSF); details: Compound concentration 20.0 uM
Sequence of Calcium/calmodulin-dependent protein kinase type II subunit delta (Homo sapiens) (Q13557 whole entry, the tested form may be a part): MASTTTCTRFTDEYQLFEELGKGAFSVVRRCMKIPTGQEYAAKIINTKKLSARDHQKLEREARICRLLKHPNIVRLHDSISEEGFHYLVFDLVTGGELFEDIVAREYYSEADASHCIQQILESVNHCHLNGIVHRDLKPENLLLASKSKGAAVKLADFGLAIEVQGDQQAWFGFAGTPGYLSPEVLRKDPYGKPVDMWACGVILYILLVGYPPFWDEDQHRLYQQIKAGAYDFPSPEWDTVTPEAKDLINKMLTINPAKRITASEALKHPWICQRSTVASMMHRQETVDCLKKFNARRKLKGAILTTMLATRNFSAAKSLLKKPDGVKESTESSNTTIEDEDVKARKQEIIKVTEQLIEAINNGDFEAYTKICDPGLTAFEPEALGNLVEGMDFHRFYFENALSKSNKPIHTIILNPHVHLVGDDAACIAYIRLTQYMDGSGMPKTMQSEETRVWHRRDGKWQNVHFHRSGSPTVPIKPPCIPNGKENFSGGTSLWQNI

[4] = biological target: T2, Zinc finger and BTB domain-containing protein 9 (Homo sapiens) (UniProt Q96C00); details: SUD4, Compound concentration 1.0 uM
T2 sequence (whole entry): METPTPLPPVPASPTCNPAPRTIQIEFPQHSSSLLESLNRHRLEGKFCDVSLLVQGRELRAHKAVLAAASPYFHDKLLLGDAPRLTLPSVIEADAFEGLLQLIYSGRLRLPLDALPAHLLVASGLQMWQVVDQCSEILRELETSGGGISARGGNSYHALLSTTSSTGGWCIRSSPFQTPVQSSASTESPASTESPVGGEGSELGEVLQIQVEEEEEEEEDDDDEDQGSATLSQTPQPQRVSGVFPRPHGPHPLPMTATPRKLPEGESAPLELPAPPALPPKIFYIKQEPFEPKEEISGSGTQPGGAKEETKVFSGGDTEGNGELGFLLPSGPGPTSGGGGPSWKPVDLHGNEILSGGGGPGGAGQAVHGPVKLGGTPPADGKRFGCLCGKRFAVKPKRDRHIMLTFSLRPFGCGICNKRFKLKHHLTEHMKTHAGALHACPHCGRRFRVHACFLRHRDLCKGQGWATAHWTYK

[5] = biological target: 5-hydroxytryptamine receptor 5A (Homo sapiens) (UniProt P47898); details: Compound concentration 10.0 uM
Sequence of 5-hydroxytryptamine receptor 5A (Homo sapiens) (P47898 whole entry): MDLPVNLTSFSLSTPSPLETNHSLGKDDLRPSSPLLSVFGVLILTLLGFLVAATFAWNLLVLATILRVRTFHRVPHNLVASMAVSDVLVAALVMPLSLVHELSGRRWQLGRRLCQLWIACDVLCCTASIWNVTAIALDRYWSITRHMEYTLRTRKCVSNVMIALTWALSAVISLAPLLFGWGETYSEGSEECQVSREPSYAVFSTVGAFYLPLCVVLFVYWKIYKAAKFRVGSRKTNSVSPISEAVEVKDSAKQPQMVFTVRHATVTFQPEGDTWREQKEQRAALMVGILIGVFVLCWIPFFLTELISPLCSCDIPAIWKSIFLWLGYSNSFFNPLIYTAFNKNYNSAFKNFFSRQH

[6] = biological target: Peripheral plasma membrane protein CASK (Homo sapiens) (UniProt O14936); assay: CASK SGC Tm panel (DSF); details: Compound concentration 20.0 uM
Sequence of Peripheral plasma membrane protein CASK (Homo sapiens) (O14936 whole entry): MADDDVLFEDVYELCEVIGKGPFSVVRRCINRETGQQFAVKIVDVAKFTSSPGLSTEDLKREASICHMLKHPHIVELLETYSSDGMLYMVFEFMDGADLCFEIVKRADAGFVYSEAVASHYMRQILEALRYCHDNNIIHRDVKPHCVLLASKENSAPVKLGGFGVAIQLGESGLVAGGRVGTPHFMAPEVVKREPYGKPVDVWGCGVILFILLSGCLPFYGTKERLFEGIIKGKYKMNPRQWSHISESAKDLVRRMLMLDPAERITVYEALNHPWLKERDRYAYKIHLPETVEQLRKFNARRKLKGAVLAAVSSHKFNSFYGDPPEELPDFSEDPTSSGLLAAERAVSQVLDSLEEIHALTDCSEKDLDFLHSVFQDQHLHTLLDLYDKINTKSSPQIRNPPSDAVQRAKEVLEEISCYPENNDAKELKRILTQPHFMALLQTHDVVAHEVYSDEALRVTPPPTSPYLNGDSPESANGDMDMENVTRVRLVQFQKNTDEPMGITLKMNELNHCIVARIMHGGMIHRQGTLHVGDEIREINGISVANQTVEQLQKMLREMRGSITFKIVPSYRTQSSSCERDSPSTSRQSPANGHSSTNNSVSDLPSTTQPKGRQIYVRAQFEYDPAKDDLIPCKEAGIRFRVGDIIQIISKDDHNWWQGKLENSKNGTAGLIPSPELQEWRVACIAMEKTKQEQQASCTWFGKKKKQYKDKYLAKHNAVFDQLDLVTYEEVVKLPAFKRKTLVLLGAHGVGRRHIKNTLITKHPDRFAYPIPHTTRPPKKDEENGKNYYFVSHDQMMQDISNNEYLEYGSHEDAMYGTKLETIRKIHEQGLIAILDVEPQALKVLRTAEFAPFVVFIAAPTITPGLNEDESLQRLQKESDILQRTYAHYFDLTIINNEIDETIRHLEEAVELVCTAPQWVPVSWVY

[7] = biological target: Transcription regulator protein BACH2 (Homo sapiens) (UniProt Q9BYV9); details: SUD4, Compound concentration 1.0 uM
Sequence of Transcription regulator protein BACH2 (Homo sapiens) (Q9BYV9 whole entry): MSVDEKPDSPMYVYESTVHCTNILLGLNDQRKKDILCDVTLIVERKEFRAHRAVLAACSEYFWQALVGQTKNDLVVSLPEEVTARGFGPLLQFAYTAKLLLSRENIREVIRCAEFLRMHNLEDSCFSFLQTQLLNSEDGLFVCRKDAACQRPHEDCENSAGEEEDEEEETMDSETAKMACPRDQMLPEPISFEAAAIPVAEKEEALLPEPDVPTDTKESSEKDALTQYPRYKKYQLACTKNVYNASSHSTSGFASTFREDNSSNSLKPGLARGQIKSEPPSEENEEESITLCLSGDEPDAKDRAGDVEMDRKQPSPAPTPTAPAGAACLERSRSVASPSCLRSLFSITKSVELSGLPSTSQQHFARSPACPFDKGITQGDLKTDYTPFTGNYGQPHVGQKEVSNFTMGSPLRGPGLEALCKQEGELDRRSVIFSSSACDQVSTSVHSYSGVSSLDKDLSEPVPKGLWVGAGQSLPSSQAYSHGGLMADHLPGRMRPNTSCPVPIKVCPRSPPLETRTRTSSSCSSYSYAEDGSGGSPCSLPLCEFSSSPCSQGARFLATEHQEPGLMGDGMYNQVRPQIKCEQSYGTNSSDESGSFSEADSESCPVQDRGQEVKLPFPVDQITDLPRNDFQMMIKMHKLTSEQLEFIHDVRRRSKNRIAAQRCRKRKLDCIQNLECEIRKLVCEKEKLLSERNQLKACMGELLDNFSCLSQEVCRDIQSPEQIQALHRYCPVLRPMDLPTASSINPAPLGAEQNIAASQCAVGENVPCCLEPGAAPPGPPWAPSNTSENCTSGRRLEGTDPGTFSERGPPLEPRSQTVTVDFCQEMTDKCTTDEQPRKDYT

[8] = biological target: Cyclin-G-associated kinase (Homo sapiens) (UniProt O14976); assay: GAK SGC Tm panel (DSF); details: Compound concentration 20.0 uM
Sequence of Cyclin-G-associated kinase (Homo sapiens) (O14976 whole entry, the tested form may be a part): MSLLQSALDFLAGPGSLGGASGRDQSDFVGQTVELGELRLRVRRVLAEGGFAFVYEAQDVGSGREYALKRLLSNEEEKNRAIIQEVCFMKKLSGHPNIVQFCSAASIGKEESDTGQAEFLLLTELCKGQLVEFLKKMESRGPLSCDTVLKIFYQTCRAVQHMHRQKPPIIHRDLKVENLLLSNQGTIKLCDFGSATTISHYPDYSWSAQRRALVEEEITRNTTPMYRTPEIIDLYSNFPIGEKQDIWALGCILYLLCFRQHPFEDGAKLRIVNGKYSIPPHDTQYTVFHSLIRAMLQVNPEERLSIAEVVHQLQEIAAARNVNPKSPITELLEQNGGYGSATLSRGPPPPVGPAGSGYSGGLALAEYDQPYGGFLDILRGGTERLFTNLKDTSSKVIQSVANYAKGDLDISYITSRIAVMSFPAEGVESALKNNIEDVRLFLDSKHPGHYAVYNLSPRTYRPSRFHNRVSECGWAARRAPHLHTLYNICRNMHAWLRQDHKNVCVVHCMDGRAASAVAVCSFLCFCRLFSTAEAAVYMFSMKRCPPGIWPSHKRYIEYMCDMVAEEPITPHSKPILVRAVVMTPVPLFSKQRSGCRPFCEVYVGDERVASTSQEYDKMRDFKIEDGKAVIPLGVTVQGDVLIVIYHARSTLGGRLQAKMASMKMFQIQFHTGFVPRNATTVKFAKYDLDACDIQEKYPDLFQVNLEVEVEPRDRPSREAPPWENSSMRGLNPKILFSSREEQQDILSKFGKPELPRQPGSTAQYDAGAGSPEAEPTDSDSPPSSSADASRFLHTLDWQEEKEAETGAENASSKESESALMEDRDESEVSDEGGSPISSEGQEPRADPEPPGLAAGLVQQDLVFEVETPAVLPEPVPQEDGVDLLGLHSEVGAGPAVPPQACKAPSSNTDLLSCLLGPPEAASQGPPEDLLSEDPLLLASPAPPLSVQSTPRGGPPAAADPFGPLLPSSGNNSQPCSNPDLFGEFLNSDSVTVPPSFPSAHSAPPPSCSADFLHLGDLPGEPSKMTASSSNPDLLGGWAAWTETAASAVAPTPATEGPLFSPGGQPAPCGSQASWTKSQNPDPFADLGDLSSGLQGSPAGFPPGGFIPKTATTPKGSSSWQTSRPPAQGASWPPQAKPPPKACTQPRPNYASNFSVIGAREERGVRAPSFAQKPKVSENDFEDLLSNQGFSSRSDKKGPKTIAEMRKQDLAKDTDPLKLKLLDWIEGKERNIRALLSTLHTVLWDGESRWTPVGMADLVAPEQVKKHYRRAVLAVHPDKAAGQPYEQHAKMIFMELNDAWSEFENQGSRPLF

[9] = biological target: T3, Zinc finger and BTB domain-containing protein 44 (Homo sapiens) (UniProt Q8NCP5); details: SUD4, Compound concentration 1.0 uM
T3 sequence (whole entry): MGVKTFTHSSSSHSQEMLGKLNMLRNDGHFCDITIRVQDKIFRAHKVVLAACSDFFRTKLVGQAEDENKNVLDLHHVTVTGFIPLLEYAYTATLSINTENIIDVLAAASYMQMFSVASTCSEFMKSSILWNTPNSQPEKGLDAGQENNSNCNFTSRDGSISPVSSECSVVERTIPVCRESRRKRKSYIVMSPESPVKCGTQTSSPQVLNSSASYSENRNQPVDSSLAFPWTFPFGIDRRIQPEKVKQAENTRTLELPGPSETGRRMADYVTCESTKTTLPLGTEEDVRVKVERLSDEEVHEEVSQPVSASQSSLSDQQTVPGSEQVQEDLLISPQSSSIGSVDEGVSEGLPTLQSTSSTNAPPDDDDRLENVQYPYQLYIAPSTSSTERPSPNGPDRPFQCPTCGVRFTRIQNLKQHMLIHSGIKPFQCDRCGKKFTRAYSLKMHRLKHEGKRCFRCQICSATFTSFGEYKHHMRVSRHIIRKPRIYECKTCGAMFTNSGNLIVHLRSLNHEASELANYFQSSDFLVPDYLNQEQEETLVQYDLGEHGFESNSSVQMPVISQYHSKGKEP

[10] = biological target: Alpha-1A adrenergic receptor (Homo sapiens) (UniProt P35348); details: Compound concentration 10.0 uM

Sequence of BMP-2-inducible protein kinase (Homo sapiens) (Q9NSY1 whole entry, looked up, the tested form may be a part): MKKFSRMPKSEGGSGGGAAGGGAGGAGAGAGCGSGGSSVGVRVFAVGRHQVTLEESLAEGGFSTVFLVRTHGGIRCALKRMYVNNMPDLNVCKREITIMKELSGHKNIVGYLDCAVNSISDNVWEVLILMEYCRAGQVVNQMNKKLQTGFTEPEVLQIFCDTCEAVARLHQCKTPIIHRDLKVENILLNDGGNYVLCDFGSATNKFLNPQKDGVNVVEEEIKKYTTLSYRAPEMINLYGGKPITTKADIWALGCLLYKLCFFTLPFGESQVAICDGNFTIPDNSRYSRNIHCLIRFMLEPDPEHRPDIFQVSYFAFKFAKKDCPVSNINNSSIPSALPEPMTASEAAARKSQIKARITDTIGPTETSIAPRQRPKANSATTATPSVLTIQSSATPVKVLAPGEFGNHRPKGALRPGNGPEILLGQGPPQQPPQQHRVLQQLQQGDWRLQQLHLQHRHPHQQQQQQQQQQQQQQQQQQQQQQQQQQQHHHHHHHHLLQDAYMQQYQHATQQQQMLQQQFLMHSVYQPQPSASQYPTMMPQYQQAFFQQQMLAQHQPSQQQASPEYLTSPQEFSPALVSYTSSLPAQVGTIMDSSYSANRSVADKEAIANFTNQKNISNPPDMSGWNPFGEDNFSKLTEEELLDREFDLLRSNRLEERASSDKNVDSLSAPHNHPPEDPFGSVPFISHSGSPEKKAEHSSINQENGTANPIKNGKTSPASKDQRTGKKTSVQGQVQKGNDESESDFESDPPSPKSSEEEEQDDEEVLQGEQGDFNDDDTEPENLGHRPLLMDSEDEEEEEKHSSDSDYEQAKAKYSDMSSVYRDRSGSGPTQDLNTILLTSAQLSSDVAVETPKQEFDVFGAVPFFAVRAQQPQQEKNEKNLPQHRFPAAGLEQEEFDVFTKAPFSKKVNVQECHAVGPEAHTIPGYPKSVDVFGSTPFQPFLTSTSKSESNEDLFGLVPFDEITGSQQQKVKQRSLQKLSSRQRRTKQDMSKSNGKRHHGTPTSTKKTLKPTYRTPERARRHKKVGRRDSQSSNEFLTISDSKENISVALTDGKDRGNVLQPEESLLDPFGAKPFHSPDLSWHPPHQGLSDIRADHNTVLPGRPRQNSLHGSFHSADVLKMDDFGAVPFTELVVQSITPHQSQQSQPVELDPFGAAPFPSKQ

C[C@@H]1CN(c2ncc(Cl)c(Nc3ccc4c(c3)n(CCC(C)(C)O)c(=O)n4C)n2)C[C@H](C)C1(F)F
inactive: Tm [1] 43 °C | LogFC [2] -0.0504 | Tm [3] 47 °C | LogFC [4] -0.0222 | inhibition [5] 13.2% | Tm [6] 68 °C | LogFC [7] -0.0358 | Tm [8] 52 °C | LogFC [9] -0.00843 | inhibition [10] 7.7%
